One test deals with HSP72 in SK-OV-3 cells. As to the kind of experiment: Cell-based ELISA (Cellisa) assay, SK-OV-3 cells: inhibition of 17-AAG-induced HSP72. To be noted: Homo sapiens; SK-OV-3 cells (Examples 169-218). As for the experimental part:
U2OS cells (5-8×10^4 cells/mL) or SK-OV-3 cells (5-8×10^4 cells/mL) were seeded into 96-well plates and incubated at 37° C. for 48 h. Compounds were then added at a range of concentrations and incubated for 1 h before addition of 17-AAG (250 nM). Cells were then incubated for 18 h. The medium was removed washed 2× with PBS and cells were then fixed with fixing solution (4% paraformaldehyde, 0.3% TritonX-100 in PBS) for 30 min at 4° C. The plates were then washed 2× with PBS before blocking with 5% milk for 30 min at 37° C. After washing the plates 4× with 0.1% Tween-20/deionised water, HSP72 antibody (SPA-810, Enzo Life) was added for 1.5 h at 37° C. Following 4× washes, the plates were incubated with europium-labelled anti-mouse antibody (0.6 ug/ml) in Delfia assay buffer (Perkin Elmer) for 1 h at 37° C. After washing the plates, Delfia enhancement solution was added, shaken for 10 min before reading in the Envision plate reader (Perkin-Elmer) with excitation at 340 nm and emission at 615 nm. The plates were washed again before protein determination using the bicinchoninic acid assay (BCA assay, Pierce Biotechnology). The europium counts were normalised for the amount of protein in each well. The 50% inhibitory concentration value of the compound was then calculated.
In turn, `CN1CCN(Cc2ccc3cc(C(=O)Nc4cc(NC(=O)c5ccc6c(c5)OCCO6)ccc4F)ccc3n2)CC1` [Example 173, N-(5-(2,3-dihydrobenzo[b][1,4]dioxine-6-carboxamido)-2-fluorophenyl)-2-((4-methylpiperazin-1-yl)methyl)quinoline-6-carboxamide] had a 50% inhibitory concentration (IC50) of 100 nM.
Turning to `CCN1CCN(Cc2ccc3cc(C(=O)Nc4cc(NC(=O)c5ccc6c(c5)OCCO6)ccc4F)ccc3n2)[C@H](C)C1` [Example 212, (R)—N-(5-(2,3-dihydrobenzo[b][1,4]dioxine-6-carboxamido)-2-fluorophenyl)-2-((4-ethyl-2-methylpiperazin-1-yl)methyl)quinoline-6-carboxamide], the IC50 stood at 85 nM.
As to `O=C(Nc1ccc(F)c(NC(=O)c2ccc3nc(CN4CC5(CCC5)C4)ccc3c2)c1)c1ccc2c(c1)OCCO2` [Example 181, 2-(2-azaspiro[3.3]heptan-2-ylmethyl)-N-(5-(2,3-dihydrobenzo[b][1,4]dioxine-6-carboxamido)-2-fluorophenyl)quinoline-6-carboxamide], the IC50 turned out to be 149 nM.
The molecule `CN1CCN(Cc2ccc3cc(C(=O)Nc4cc(NC(=O)c5ccc6c(c5)OCCO6)ccc4Cl)ccc3n2)CC1` [Example 195, N-(2-chloro-5-(2,3-dihydrobenzo[b][1,4]dioxine-6-carboxamido)phenyl)-2-((4-methylpiperazin-1-yl)methyl)quinoline-6-carboxamide] gave an IC50 of 66 nM.
On the same count and under the same terms, the figure for `CC(C)N1CCN(Cc2ccc3cc(C(=O)Nc4cc(NC(=O)c5ccc6c(c5)OCCO6)ccc4F)ccc3n2)[C@@H](C)C1` [Example 217, (S)—N-(5-(2,3-dihydrobenzo[b][1,4]dioxine-6-carboxamido)-2-fluorophenyl)-2-((4-isopropyl-2-methylpiperazin-1-yl)methyl)quinoline-6-carboxamide] is 137 nM; for `O=C(Nc1ccc(F)c(NC(=O)c2ccc3nc(OCCCN4CCCCC4)ccc3c2)c1)c1ccc2c(c1)OCCO2` [Example 186, N-(5-(2,3-dihydrobenzo[b][1,4]dioxine-6-carboxamido)-2-fluorophenyl)-2-(3-(piperidin-1-yl)propoxy)quinoline-6-carboxamide] it is 13 nM.
For `O=C(Nc1ccc(Cl)c(NC(=O)c2ccc3nc(CN4CCN(C5CC5)CC4)ccc3c2)c1)c1ccc2c(c1)OCCO2` [Example 194, N-(2-chloro-5-(2,3-dihydrobenzo[b][1,4]dioxine-6-carboxamido)phenyl)-2-((4-cyclopropylpiperazin-1-yl)methyl)quinoline-6-carboxamide], half-maximal inhibition (IC50) required 213 nM.
Still for that read-out and setting: the figure for `CC(C)N1CCN(Cc2ccc3cc(C(=O)Nc4cc(NC(=O)c5ccc6c(c5)OCCO6)ccc4F)ccc3n2)[C@H](C)C1` [Example 218, (R)—N-(5-(2,3-dihydrobenzo[b][1,4]dioxine-6-carboxamido)-2-fluorophenyl)-2-((4-isopropyl-2-methylpiperazin-1-yl)methyl)quinoline-6-carboxamide] is 80 nM.
The same measure, in the same setting: the figure for `CCN1CCN(Cc2ccc3cc(C(=O)Nc4cc(NC(=O)c5ccc6c(c5)OCCO6)ccc4Cl)ccc3n2)CC1` [Example 196, N-(2-chloro-5-(2,3-dihydrobenzo[b][1,4]dioxine-6-carboxamido)phenyl)-2-((4-ethylpiperazin-1-yl)methyl)quinoline-6-carboxamide] is 48 nM; for `C[C@H]1CCCN1Cc1ccc2cc(C(=O)Nc3cc(NC(=O)c4ccc5c(c4)OCCO5)ccc3F)ccc2n1` [Example 175, (S)—N-(5-(2,3-dihydrobenzo[b][1,4]dioxine-6-carboxamido)-2-fluorophenyl)-2-((2-methylpyrrolidin-1-yl)methyl)quinoline-6-carboxamide] it is 647 nM.
Consider `Cc1ccc(NC(=O)c2ccc3c(c2)OCCO3)cc1NC(=O)c1ccc2nc(CN3CC[C@@H](F)C3)ccc2c1` [Example 206, (R)—N-(5-(2,3-dihydrobenzo[b][1,4]dioxine-6-carboxamido)-2-methylphenyl)-2-((3-fluoropyrrolidin-1-yl)methyl)quinoline-6-carboxamide], for which the half-maximal inhibitory concentration (IC50) was found to be 76 nM.

Staying with this test, now noted: SK-OV-3 cells (Examples 169-218).
Turning to “2-((4-(sec-butyl)piperazin-111)methyl)-N-(5-(2,3-dihydrobenzo[b][1,4]dioxine-6-carboxamido)-2-fluorophenyl)quinoline-6-carboxamide [Example 179]”, it took 19 nM to reach half-maximal inhibition (IC50).

For the origin of these results see US9701664B2, “Fused 1,4-dihydrodioxin derivatives as inhibitors of heat shock transcription factor 1” (Cancer Research Technology Limited, priority 2013, dated 2017).
